IC50 data for 22 molecules are collected here from ChEMBL document CHEMBL1138834, “Zn2+-chelating motif-tethered short-chain fatty acids as a novel class of histone deacetylase inhibitors” (J Med Chem, 2004).

Broadly, the IC50 is the point on the concentration scale where inhibition reaches its midpoint. High values mean weaker potency in that assay, low ones greater potency in that assay.

The structures appear in SMILES notation. Bounds are passed on as bounds.

In one experiment the test system is DU-145. Nature of the experiment: Effect of HTPB on DU-145 Cell viability; high degree of sensitivity, Range 0.5-1. It is filed as functional, cell-based. As to conditions: Homo sapiens.
Turning to `O=C(CCCc1ccccc1)Nc1ccc(C(=O)NO)cc1`, the IC50 came out at 1 µM. In other words, the single-digit micromolar range.

The target of another experiment is Histone deacetylase. The experiment in a line: Inhibition of histone deacetylase (HDAC) activity in DU-145 nuclear extracts. It is filed as protein assay, Homo sapiens.
Settings: not given
`Nc1ccccc1NC(=O)c1ccc(CNC(=O)Cc2ccccc2)cc1` returned an IC50 of 5.2 µM.

The molecule `O=C(CCc1ccc(NC(=O)CCCc2ccccc2)cc1)NO` showed an IC50 of 0.53 µM.

With `CCCC(CCC)C(=O)Nc1ccc(CC(=O)Nc2ccccc2N)cc1`, the concentration for half-maximal inhibition (IC50) turned out to be 80 µM.

The molecule `CCCC(=O)Nc1ccc(CCC(=O)NO)cc1` had a concentration for half-maximal inhibition (IC50) of 1.6 µM.

In turn, `CCCC(=O)Nc1ccc(C(=O)NO)cc1` had an IC50 of 1.5 µM.

Take `CCCC(CCC)C(=O)Nc1ccc(CCC(=O)NO)cc1`: the IC50 is 5 µM.

In turn, `CCCC(=O)NCc1ccc(C(=O)NO)cc1` displayed a half-inhibitory concentration (IC50) of 3.6 µM.

Consider `O=C(CCCc1ccccc1)Nc1ccc(C(=O)NO)cc1`, for which the IC50 turned out to be 0.044 µM.

For the molecule `O=C(Cc1ccccc1)NCc1ccc(C(=O)NO)cc1`, the half-maximal inhibitory concentration (IC50) worked out at 2.5 µM.

The molecule `O=C(CCCc1ccccc1)NCc1ccc(C(=O)NO)cc1` yielded an IC50 of 1.2 µM.

The molecule `O=C(CCc1ccc(NC(=O)Cc2ccccc2)cc1)NO` came in with an IC50 of 0.67 µM.

`O=C(Cc1ccccc1)Nc1ccc(C(=O)NO)cc1` yielded an IC50 of 0.11 µM.

As for `Nc1ccccc1NC(=O)c1ccc(CNC(=O)CCCc2ccccc2)cc1`, the IC50 was 4.3 µM.

As for `CCCC(=O)NCc1ccc(C(=O)Nc2ccccc2N)cc1`, the 50% inhibitory concentration (IC50) came out at 6 µM. This IC50 and that of the molecule before are within 1.5-fold of each other.

Another experiment addresses Histone deacetylase. The experiment in a line: Inhibitory concentration against histone deacetylase (HDAC); Value ranges from 10-20 uM. It is filed as protein assay.
Settings: not given
In turn, `CCCC(CCC)C(=O)Nc1ccc(/C=C/C(=O)NO)cc1` had an IC50 below 20 µM.

In turn, `CCCC(CCC)C(=O)Nc1ccc(C(=O)Nc2ccccc2N)cc1` yielded a concentration for half-maximal inhibition (IC50) below 20 µM.

For the molecule `CCCC(CCC)C(=O)Nc1ccc(/C=C/C(=O)Nc2ccccc2N)cc1`, the IC50 is below 20 µM.

For another experiment, the target named is Histone deacetylase. The experiment in a line: Inhibitory concentration against histone deacetylase (HDAC); Value ranges from 5-8 uM. It is filed as protein assay.
Settings: not given
For the molecule `CCCC(CCC)C(=O)Nc1ccc(C(=O)NO)cc1`, the IC50 is below 8 µM.

The molecule `CCCC(CCC)C(=O)NCc1ccc(C(=O)NO)cc1` yielded a 50% inhibitory concentration (IC50) below 8 µM.

`CCCC(CCC)C(=O)NCc1ccc(C(=O)Nc2ccccc2N)cc1` gave an IC50 below 8 µM.

The next experiment deals with Histone deacetylase. The experiment in a line: Inhibitory concentration against histone deacetylase (HDAC); Value ranges from 5-80 uM. It is filed as protein assay.
Settings: not given
`CCCC(CCC)C(=O)Nc1ccc(CC(=O)NO)cc1`: the IC50 was below 80 µM.

For `CCCC(CCC)C(=O)Nc1ccc(CCC(=O)Nc2ccccc2N)cc1`, the IC50 was below 80 µM.
